Measurements taken from article PMC3189208 (PLoS ONE, 2011).
Read-outs that look alike come from different tables or passages of the source.

How the values were obtained:
[1] = test system: MOR kinase pathways in HEK-MOR cells; format: cell-based, human
[2] = biological target: MOR; settings: cited from earlier work
[3] = test system: MOR G-protein signaling in HEK-MOR cells; format: cell-based, human
[4] = test system: parental HEK293 cells; format: cell-based, human

Q: Which “maximal DMR response after SB202190 pretreatment vs untreated” value [1] does the source give for DSLET here?
A: The value was “significantly reduced”.

Q: And the Kd [2]?
A: Its Kd is 120 nM.

Q: Which Ki [2] does the source give for `C=CCN1CC[C@]23CCCC[C@H]2[C@H]1Cc1ccc(O)cc13` [levallorphan] here?
A: The Ki was 1.7 nM.

Q: With `O=C(Cc1ccc(Cl)c(Cl)c1)N1CCCCC1CN1CCCC1` (stereo not drawn) [BRL-52537] as the molecule, how does the “maximal DMR response after SB202190 pretreatment vs untreated” value [1] read?
A: Its value is “significantly reduced”.

Q: What about the “ligand-induced DMR in cholera toxin (CTx)-pretreated cells vs untreated” value [3] of the same molecule?
A: The value was “reduce”.

Q: What about the Ki [2] of the same molecule?
A: The Ki was 1560 nM.

Q: Which “maximal DMR response after SB202190 pretreatment vs untreated” value [1] does the source give for `C[C@@H](NC(=O)[C@@H](N)Cc1ccc(O)cc1)C(=O)NCC(=O)N(C)[C@@H](Cc1ccccc1)C(=O)NCCO` [DAMGO] here?
A: Its value is “not completely blunted”.

Q: And the “ligand-induced DMR in pertussis toxin (PTx)-pretreated cells” value [3]?
A: The value was “small P-DMR”.

Q: With dynorphin B as the molecule, how does the Ki [2] read?
A: The Ki was 13 nM.

Q: Which Ki [2] does the source give for `O=C1/C(=C/c2ccccc2)C[C@@]2(O)[C@H]3Cc4ccc(O)c5c4[C@@]2(CCN3CC2CC2)[C@H]1O5` [BNTX] here?
A: Its Ki is 18 nM.

Q: And the “DMR produced by ligand in parental HEK293 cells” value [4]?
A: Its value is “negative DMR”.

Q: Which Ki [2] does the source give for (met^5)-enkephalin here?
A: Its Ki is 3 nM.

Q: For `CN(C(=O)Cc1ccc(Cl)c(Cl)c1)[C@H](CN1CCCC1)c1cccc(N=C=S)c1` [DIPPA, 2-(3,4-Dichlorophenyl)-N-methyl-N-[(1S)-1-(3-isothiocyanatophenyl)-2-(1-pyrrolidinyl)ethyl]acetamide], which “late DMR response after U0126 pretreatment vs untreated” value [1] is on record?
A: Its value is “significantly suppressed”.

Q: What about the “maximal DMR response after SB202190 pretreatment vs untreated” value [1] of the same molecule?
A: Its value is “significantly reduced”.

Q: What about the “maximal DMR response after U0126 pretreatment vs untreated” value [1] of the same molecule?
A: The value was “sensitive”.

Q: And the IC50 [2]?
A: The IC50 was 1800 nM.

Q: With dynorphin A 1-13 as the molecule, how does the “maximal DMR response after SB202190 pretreatment vs untreated” value [1] read?
A: The value was “significantly reduced”.

Q: And the “maximal DMR response after SP100625 pretreatment vs untreated” value [1]?
A: The value was “enhanced”.

Q: And the Kd [2]?
A: The Kd was 31 nM.

Q: For `C=CC[N+]1(C)CC[C@]23c4c5ccc(O)c4O[C@H]2C(=O)CC[C@@]3(O)[C@H]1C5` (stereo partly drawn) [naloxone methionone], which Ki [2] is on record?
A: The Ki was 28.9 nM.

Q: For DPDPE, which Kd [2] is on record?
A: Its Kd is 600 nM.

Q: With `COc1cccc(C2(O)CCCCC2CN(C)C)c1` (stereo not drawn) [tramadol] as the molecule, how does the “maximal DMR response after SB202190 pretreatment vs untreated” value [1] read?
A: The value was “significantly reduced”.

Q: And the “maximal DMR response after U0126 pretreatment vs untreated” value [1]?
A: Its value is “sensitive”.

Q: With `C=CCN1CCC2(C)c3cc(O)ccc3CC1C2C` (stereo not drawn) [SKF10047] as the molecule, how does the Ki [2] read?
A: Its Ki is 1900 nM.

Q: With `Oc1ccc2c3c1O[C@H]1c4oc5ccccc5c4C[C@@]4(O)[C@@H](C2)N(CC2CC2)CC[C@]314` [Naltriben] as the molecule, how does the Ki [2] read?
A: Its Ki is 80.8 nM.

Q: With morphiceptin as the molecule, how does the IC50 [2] read?
A: The IC50 was 19.8 nM.

Q: What does the source list for `COC(=O)/C=C/C(=O)N[C@@H]1CC[C@@]2(O)[C@H]3Cc4ccc(O)c5c4[C@@]2(CCN3CC2CC2)[C@H]1O5` [β-funaltrexamine]?
A: late DMR response after SP100625 pretreatment vs untreated [1]: potentiated; maximal DMR response after SP100625 pretreatment vs untreated [1]: enhanced; Ki [2]: 0.33 nM

Q: Which Kd [2] does the source give for (D-Ala^2, D-Leu^5) enkephalin here?
A: The Kd was 150 nM.

Q: For dynorphin A 1-8, which Ki [2] is on record?
A: Its Ki is 22.3 nM.

Q: Which Ki [2] does the source give for `COc1ccc2c3c1O[C@H]1[C@@H](O)C=C[C@H]4[C@@H](C2)NCC[C@@]341` [(-)-norcodeine] here?
A: The Ki was 267 nM.

Q: With `NC(=O)[C@H](Cc1ccccc1)NC(=O)[C@H](Cc1ccccc1)NC(=O)[C@@H]1CCCN1C(=O)[C@@H](N)Cc1ccc(O)cc1` [endomorphin-2] as the molecule, how does the “ligand-induced DMR in cholera toxin (CTx)-pretreated cells vs untreated” value [3] read?
A: Its value is “reduce”.

Q: And the Ki [2]?
A: The Ki was 0.43 nM.

Q: Which Kd [2] does the source give for deltorphin II here?
A: The Kd was 3.3 nM.

Q: For nociceptin 1-13: ORL1 agonist, which Ki [2] is on record?
A: Its Ki is 270 nM.

Q: Which IC50 [2] does the source give for `Oc1ccc2c3c1O[C@H]1c4c(c5ccccc5n4Cc4ccccc4)C[C@@]4(O)[C@@H](C2)N(CC2CC2)CC[C@]314` [N-benzylnaltrindole] here?
A: The IC50 was 11.2 nM.

Q: With `CN(C(=O)Cc1ccc(Cl)c(Cl)c1)[C@H](CN1CCCC1)c1ccccc1` [ICI 199,441] as the molecule, how does the “DMR produced by ligand in parental HEK293 cells” value ([4]; ligand 10 µM) read?
A: The value was “small N-DMR”.
